ChEMBL document CHEMBL5723585, “Data for DCP probe JNJ-54082730” (2024)

What was measured:
[1] = target: cAMP and cAMP-inhibited cGMP 3',5'-cyclic phosphodiesterase 10A (Homo sapiens, UniProt Q9Y233); experiment: Scintillation proximity assay (PDE10A)
Phosphodiesterase 3 = Phosphodiesterase 3 (Homo sapiens, UniProt Q14432+Q13370); experiment: Scintillation proximity assay (PDE3); type: protein assay
[2] = target: cGMP-dependent 3',5'-cyclic phosphodiesterase (Rattus norvegicus) (UniProt Q01062); experiment: Target occupancy in striatum ( p.o.dose, 1 h); type: organism-based
Chain of cGMP-dependent 3',5'-cyclic phosphodiesterase (Rattus norvegicus) (Q01062 whole entry): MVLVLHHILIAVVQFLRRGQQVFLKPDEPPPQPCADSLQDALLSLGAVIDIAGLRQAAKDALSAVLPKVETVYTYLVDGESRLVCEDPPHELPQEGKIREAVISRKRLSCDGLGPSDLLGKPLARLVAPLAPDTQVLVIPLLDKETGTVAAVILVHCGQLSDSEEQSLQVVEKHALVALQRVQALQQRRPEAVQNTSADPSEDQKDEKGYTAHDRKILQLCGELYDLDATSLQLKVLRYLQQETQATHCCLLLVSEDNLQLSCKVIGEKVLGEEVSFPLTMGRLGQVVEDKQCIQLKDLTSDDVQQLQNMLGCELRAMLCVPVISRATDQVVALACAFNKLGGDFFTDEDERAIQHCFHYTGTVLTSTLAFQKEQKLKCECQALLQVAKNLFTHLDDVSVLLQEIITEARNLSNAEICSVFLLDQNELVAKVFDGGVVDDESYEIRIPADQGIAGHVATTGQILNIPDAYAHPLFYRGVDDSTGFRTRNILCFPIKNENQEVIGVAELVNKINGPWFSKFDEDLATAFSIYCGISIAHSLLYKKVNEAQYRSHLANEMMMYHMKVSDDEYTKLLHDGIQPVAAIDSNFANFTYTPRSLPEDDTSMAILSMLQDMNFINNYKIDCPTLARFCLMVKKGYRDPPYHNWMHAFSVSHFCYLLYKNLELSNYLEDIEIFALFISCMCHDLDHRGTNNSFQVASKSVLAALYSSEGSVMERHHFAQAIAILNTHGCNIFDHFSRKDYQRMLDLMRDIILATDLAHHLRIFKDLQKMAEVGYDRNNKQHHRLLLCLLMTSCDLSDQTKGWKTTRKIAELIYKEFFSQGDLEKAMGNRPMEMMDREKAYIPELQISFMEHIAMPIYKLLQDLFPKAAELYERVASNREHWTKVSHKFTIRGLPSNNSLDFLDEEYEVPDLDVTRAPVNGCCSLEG

[3] = target: cGMP-dependent 3',5'-cyclic phosphodiesterase (Homo sapiens, UniProt O00408); experiment: Scintillation proximity assay (PDE2A) ( Mean (95% Confidence Interval) = 0.8 -1 nM; Ki = 0.7 nM)
Chain of cGMP-dependent 3',5'-cyclic phosphodiesterase (O00408 whole entry): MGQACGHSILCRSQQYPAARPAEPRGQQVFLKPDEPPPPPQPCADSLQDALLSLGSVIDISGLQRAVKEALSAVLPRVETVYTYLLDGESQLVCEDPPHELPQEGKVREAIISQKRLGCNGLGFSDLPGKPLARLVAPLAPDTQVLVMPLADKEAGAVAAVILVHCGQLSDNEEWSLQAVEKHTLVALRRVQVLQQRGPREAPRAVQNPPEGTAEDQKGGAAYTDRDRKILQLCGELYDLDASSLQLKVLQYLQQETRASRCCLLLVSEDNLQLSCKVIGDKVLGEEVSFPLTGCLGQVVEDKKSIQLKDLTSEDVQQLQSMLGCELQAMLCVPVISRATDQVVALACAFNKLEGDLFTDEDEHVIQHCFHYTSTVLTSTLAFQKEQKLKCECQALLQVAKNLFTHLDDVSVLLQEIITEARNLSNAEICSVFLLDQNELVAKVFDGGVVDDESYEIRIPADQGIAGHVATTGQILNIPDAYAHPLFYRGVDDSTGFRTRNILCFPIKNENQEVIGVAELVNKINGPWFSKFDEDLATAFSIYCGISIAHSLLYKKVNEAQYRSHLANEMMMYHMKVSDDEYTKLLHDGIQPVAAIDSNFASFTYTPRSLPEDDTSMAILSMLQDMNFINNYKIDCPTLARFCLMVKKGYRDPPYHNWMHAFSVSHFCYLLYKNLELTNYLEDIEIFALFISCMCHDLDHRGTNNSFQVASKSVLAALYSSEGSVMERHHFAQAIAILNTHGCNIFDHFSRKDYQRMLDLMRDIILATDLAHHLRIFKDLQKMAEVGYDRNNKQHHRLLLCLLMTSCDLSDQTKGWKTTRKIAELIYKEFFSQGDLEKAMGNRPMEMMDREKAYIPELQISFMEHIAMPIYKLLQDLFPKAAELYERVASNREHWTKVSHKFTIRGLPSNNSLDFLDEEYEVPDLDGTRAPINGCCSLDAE

Chain of cAMP and cAMP-inhibited cGMP 3',5'-cyclic phosphodiesterase 10A (Q9Y233 whole entry): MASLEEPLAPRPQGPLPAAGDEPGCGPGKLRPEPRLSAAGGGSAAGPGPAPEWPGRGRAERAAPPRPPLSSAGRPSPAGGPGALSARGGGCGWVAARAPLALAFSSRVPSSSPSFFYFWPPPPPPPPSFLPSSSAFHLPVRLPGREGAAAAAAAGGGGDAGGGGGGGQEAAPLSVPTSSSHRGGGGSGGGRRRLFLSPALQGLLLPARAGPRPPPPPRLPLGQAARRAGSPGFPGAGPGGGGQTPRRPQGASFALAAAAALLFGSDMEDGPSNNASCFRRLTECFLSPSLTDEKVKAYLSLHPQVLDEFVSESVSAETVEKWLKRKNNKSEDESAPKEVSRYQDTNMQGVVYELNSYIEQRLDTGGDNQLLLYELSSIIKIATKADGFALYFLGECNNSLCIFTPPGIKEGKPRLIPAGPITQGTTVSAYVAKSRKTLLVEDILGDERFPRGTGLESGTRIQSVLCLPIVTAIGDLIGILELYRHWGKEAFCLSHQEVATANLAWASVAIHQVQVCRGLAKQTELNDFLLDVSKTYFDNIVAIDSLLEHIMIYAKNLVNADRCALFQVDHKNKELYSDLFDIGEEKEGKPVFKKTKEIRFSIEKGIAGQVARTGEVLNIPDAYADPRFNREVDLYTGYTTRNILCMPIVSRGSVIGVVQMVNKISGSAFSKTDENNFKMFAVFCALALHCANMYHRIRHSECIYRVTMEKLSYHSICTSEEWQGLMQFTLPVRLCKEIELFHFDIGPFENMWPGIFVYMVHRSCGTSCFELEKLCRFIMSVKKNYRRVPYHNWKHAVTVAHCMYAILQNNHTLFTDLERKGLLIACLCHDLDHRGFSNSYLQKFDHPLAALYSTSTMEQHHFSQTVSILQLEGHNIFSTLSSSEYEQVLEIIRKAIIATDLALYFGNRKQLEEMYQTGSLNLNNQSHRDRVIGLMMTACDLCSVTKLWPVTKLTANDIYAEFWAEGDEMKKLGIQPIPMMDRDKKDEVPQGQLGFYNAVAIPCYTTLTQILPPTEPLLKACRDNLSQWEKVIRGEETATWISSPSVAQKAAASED

For Cc1cc(C(=O)N2CC[C@H](C)[C@@H](c3cc(C(F)F)nc4ncnn34)C2)cc(C)n1, the IC50 [1] was > 10 µM (not active), the IC50 (Phosphodiesterase 3) was greater than 10 µM and the ED50 [2] was greater than 80 mg/kg. For the same compound, the IC50 [3] was 0.097 µM (not active).
